Assay results taken from patent publication US20230103791A1 (GLAXOSMITHKLINE INTELLECTUAL PROPERTY DEVELOPMENT LIMITED, priority 2019, published 2023).

Target: T1, human Nav1.8 (Homo sapiens, UniProt Q9Y5Y9)
T1 construct: expressed in transfected cells; host or cells: HEK293 (HEK293-Nav1.8)
Test: Nav1.8 sodium channels assay, QPatch 48 HTX electrophysiology in HEK293-Nav1.8 cells
Format: cell-based
Conditions: at least one set of experimental runs; read-out: average pIC50 value against Nav1.8 (converted)
How it was run: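 IC50 came from 6-8 point curves of P2 current amplitude, normalized to baseline and a positive reference, and corrected for run-down using vehicle-only wells. Automated patch clamp used HEK293-Nav1.8 (with Navβ1 and TREK1) at pH 7.4 outside and CsF-based solution inside. An 8 s inactivating step at −46 mV preceded the 0 mV test pulse, repeated at 0.07 Hz.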

T1 sequence (Q9Y5Y9 whole entry): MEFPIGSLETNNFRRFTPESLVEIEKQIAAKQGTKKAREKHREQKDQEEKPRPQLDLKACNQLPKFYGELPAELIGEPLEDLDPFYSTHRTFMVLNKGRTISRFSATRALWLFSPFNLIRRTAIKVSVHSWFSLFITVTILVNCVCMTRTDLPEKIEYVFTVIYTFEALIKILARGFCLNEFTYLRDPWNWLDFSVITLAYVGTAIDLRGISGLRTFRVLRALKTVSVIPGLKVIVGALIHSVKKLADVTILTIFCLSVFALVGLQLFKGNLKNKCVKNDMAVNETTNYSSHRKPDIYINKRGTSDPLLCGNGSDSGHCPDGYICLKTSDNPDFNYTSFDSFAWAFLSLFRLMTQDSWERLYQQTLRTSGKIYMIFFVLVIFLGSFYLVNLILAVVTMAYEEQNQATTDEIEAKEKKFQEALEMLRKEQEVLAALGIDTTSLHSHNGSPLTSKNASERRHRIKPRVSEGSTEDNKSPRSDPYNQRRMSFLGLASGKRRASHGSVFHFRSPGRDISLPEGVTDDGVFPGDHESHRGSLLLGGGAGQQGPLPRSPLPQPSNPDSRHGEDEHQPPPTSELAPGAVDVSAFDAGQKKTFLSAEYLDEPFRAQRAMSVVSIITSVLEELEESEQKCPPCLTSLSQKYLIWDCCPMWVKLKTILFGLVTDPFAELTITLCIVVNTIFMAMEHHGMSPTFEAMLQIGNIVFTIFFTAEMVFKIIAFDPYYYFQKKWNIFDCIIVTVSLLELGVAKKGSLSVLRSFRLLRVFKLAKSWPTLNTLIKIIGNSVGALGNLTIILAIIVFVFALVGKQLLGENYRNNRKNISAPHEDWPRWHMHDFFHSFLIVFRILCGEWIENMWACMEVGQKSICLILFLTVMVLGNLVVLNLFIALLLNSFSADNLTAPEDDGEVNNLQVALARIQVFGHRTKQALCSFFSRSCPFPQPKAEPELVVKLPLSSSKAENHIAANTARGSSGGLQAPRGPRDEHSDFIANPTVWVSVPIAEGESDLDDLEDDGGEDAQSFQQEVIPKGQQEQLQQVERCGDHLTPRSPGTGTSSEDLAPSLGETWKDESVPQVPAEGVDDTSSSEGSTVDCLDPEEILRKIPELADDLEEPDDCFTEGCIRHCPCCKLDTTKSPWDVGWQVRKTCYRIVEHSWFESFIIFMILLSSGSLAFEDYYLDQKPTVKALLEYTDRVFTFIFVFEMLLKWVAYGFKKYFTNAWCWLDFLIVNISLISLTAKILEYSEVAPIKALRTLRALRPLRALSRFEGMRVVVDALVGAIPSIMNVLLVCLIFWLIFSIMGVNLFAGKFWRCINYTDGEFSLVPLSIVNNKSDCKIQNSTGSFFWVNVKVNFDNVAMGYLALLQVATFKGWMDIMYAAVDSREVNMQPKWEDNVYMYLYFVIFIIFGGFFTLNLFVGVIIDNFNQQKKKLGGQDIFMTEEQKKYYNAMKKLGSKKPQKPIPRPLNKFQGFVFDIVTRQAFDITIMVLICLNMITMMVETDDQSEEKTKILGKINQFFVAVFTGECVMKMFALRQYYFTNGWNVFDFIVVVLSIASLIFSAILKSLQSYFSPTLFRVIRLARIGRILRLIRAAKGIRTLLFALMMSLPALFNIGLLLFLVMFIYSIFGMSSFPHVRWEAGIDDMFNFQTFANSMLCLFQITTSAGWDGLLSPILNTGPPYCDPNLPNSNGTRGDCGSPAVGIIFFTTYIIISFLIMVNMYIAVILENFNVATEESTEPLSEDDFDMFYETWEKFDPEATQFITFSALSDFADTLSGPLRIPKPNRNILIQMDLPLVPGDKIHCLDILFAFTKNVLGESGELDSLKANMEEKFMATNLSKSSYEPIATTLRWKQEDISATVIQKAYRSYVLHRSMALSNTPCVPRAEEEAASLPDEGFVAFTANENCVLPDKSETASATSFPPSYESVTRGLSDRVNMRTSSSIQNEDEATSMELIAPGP
T1 sequence (Q07699 19-218 partner): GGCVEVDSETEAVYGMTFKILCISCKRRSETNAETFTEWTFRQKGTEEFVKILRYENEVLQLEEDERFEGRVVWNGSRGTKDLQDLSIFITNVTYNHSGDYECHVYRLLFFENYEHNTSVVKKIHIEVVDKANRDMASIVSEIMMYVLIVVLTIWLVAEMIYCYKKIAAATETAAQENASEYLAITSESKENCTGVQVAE

| SMILES | IC50 [nM] |
| --- | --- |
| Cc1[nH]c(=O)ccc1N1CN(c2ccc(F)cc2C(C)C)c2nc(C(F)(F)F)ccc2C1=O [Example 212, 1-(4-fluoro-2-isopropylphenyl)-3-(2-methyl-6-oxo-1,6-dihydropyridin-3-yl)-7-(trifluoromethyl)-2,3-dihydropyrido[2,3-d]pyrimidin-4(1H)-one] | ≤ 100 |
| COc1cc(F)ccc1N1CN(c2ccc(=O)[nH]c2)C(=O)c2ccc(C(F)(F)F)cc21 [Example 216, 1-(4-fluoro-2-methoxyphenyl)-3-(6-oxo-1,6-dihydropyridin-3-yl)-7-(trifluoromethyl)-2,3-dihydroquinazolin-4(1H)-one] | 126 to 631 |
| Cc1cc(F)ccc1N1CN(c2ccc(=O)[nH]c2)C(=O)c2c1cccc2C(F)(F)F [Example 217, 1-(4-fluoro-2-methylphenyl)-3-(6-oxo-1,6-dihydropyridin-3-yl)-5-(trifluoromethyl)-2,3-dihydroquinazolin-4(1H)-one] | 794 to 7940 |
| O=C1c2ccc(C(F)(F)F)cc2N(Cc2ccc(F)cc2)CN1c1ccc(=O)[nH]c1 [Example 220, 1-(4-fluorobenzyl)-3-(6-oxo-1,6-dihydropyridin-3-yl)-7-(trifluoromethyl)-2,3-dihydroquinazolin-4(1H)-one] | 794 to 7940 |
| COc1cc(F)ccc1N1CN(c2ccc(=O)[nH]c2)C(=O)c2c1cccc2C(F)(F)F [Example 223, 1-(4-fluoro-2-methoxyphenyl)-3-(6-oxo-1,6-dihydropyridin-3-yl)-5-(trifluoromethyl)-2,3-dihydroquinazolin-4(1H)-one] | 794 to 7940 |
| Cc1ncsc1N1CN(c2ccc(=O)[nH]c2C)C(=O)c2cc(C(F)(F)F)ccc21 [Example 224, 3-(2-methyl-6-oxo-1,6-dihydropyridin-3-yl)-1-(4-methylthiazol-5-yl)-6-(trifluoromethyl)-2,3-dihydroquinazolin-4(1H)-one] | 794 to 7940 |
| COc1ccc(N2CN(c3ccc(=O)[nH]c3C)C(=O)c3cc(C(F)(F)F)ccc32)c(OC)c1 [Example 225, 1-(2,4-dimethoxyphenyl)-3-(2-methyl-6-oxo-1,6-dihydropyridin-3-yl)-6-(trifluoromethyl)-2,3-dihydroquinazolin-4(1H)-one] | ≤ 100 |
| COc1cc(F)ccc1N1CN(c2ccc(=O)[nH]c2)C(=O)c2ccc(C#N)cc21 [Example 229, 1-(4-fluoro-2-methoxyphenyl)-4-oxo-3-(6-oxo-1,6-dihydropyridin-3-yl)-1,2,3,4-tetra-hydroquinazoline-7-carbonitrile] | 794 to 7940 |
| Cc1cc(OC(F)(F)F)ccc1N1CN(c2ccc(=O)[nH]c2)C(=O)c2cc(C(F)(F)F)ccc21 [Example 231, 1-(2-methyl-4-(trifluoromethoxy)phenyl)-3-(6-oxo-1,6-dihydropyridin-3-yl)-6-(trifluoromethyl)-2,3-dihydroquinazolin-4(1H)-one] | ≤ 100 |
| Cc1cc(F)ccc1N1CN(c2ccc(=O)[nH]c2C)C(=O)c2cc(C#N)c(Cl)cc21 [Example 233, 7-chloro-1-(4-fluoro-2-methylphenyl)-3-(2-methyl-6-oxo-1,6-dihydropyridin-3-yl)-4-oxo-1,2,3,4-tetra-hydroquinazoline-6-carbonitrile] | ≤ 100 |
| COc1cccc2c1C(=O)N(c1ccc(=O)[nH]c1C)CN2c1ccc(F)cc1C(C)C [Example 236, 1-(4-fluoro-2-isopropylphenyl)-5-methoxy-3-(2-methyl-6-oxo-1,6-dihydropyridin-3-yl)-2,3-dihydroquinazolin-4(1H)-one] | 794 to 7940 |
| Cc1[nH]c(=O)ccc1N1CN(C23CC(C2)C3)c2cc(C(F)(F)F)ccc2C1=O [Example 237, 1-(bicyclo[1.1.1]pentan-1-yl)-3-(2-methyl-6-oxo-1,6-dihydropyridin-3-yl)-7-(trifluoromethyl)-2,3-dihydroquinazolin-4(1H)-one] | 794 to 7940 |
| Cc1cc(F)ccc1N1CN(c2ccc(=O)[nH]c2C)Cc2cc(C(F)(F)F)ccc21 [Example 239, 5-(1-(4-fluoro-2-methylphenyl)-6-(trifluoromethyl)-1,4-dihydroquinazolin-3(2H)-yl)-6-methylpyridin-2(1H)-one] | 126 to 631 |
| Cc1[nH]c(=O)ccc1N1CN(c2ccccc2CC(F)(F)F)c2ccc(C(F)(F)F)cc2C1=O [Example 240, 3-(2-Methyl-6-oxo-1,6-dihydropyridin-3-yl)-1-(2-(2,2,2-trifluoroethyl)phenyl)-6-(trifluoromethyl)-2,3-dihydroquinazolin-4(1H)-one] | ≤ 100 |

Further lines, results first:

| IC50 [nM] | SMILES |
| --- | --- |
| 794 to 7940 | Cc1cc(F)ccc1N1CN(c2c(C)cc(=O)[nH]c2Br)C(=O)c2ccc(C(F)(F)F)cc21 [Example 211, 3-(2-bromo-4-methyl-6-oxo-1,6-dihydropyridin-3-yl)-1-(4-fluoro-2-methylphenyl)-7-(trifluoromethyl)-2,3-dihydroquinazolin-4(1H)-one] |
| 126 to 631 | Cc1[nH]c(=O)ccc1N1CN(c2ccc(F)cc2C(C)C)c2ncc(Cl)cc2C1=O [Example 213, 6-chloro-1-(4-fluoro-2-isopropylphenyl)-3-(2-methyl-6-oxo-1,6-dihydropyridin-3-yl)-2,3-dihydropyrido[2,3-d]pyrimidin-4(1H)-one] |
| ≤ 100 | Cc1cc(F)ccc1N1CN(c2ccc(=O)[nH]c2C)C(=S)c2ccc(C(F)(F)F)cc21 [Example 214, 5-(1-(4-fluoro-2-methylphenyl)-4-thioxo-7-(trifluoromethyl)-1,4-dihydroquinazolin-3(2H)-yl)-6-methylpyridin-2(1H)-one] |
| 126 to 631 | Cc1cc(F)ccc1N1CN(c2ccc(=O)[nH]c2)C(=O)c2cc(C(F)(F)F)ccc21 [Example 215, 1-(4-Fluoro-2-methylphenyl)-3-(6-oxo-1,6-dihydropyridin-3-yl)-6-(trifluoromethyl)-2,3-dihydroquinazolin-4(1H)-one] |
| 126 to 631 | Cc1cc(F)ccc1N1CN(c2c[nH]c(=O)c(C)c2)C(=O)c2ccc(C(F)(F)F)cc21 [Example 218, 1-(4-fluoro-2-methylphenyl)-3-(5-methyl-6-oxo-1,6-dihydropyridin-3-yl)-7-(trifluoromethyl)-2,3-dihydroquinazolin-4(1H)-one] |
| 794 to 7940 | Cc1cc(F)ccc1N1CN(c2ccc(=O)[nH]n2)C(=O)c2ccc(C(F)(F)F)cc21 [Example 219, 1-(4-fluoro-2-methylphenyl)-3-(6-oxo-1,6-dihydropyridazin-3-yl)-7-(trifluoromethyl)-2,3-dihydroquinazolin-4(1H)-one] |
| 126 to 631 | Cc1cc(=O)[nH]cc1N1CN(c2ccc(F)cc2C)c2cc(C(F)(F)F)ccc2C1=O [Example 221, 1-(4-fluoro-2-methylphenyl)-3-(4-methyl-6-oxo-1,6-dihydropyridin-3-yl)-7-(trifluoromethyl)-2,3-dihydroquinazolin-4(1H)-one] |
| 794 to 7940 | Cc1cc(F)ccc1N1CN(c2ccc(=O)[nH]c2)C(=O)c2ccc(C#N)cc21 [Example 222, 1-(4-fluoro-2-methylphenyl)-4-oxo-3-(6-oxo-1,6-dihydropyridin-3-yl)-1,2,3,4-tetrahydro-quinazoline-7-carbonitrile] |
| ≤ 100 | COc1cc(F)ccc1N1CN(c2ccc(=O)[nH]c2C)C(=O)c2cc(C(F)(F)F)ccc21 [Example 226, 1-(4-fluoro-2-methoxyphenyl)-3-(2-methyl-6-oxo-1,6-dihydropyridin-3-yl)-6-(trifluoromethyl)-2,3-dihydroquinazolin-4(1H)-one] |
| ≤ 100 | Cc1cc(F)ccc1N1CN(c2ccc(=O)[nH]c2C)C(=O)c2cc(F)c(Cl)nc21 [Example 227, 7-chloro-6-fluoro-1-(4-fluoro-2-methylphenyl)-3-(2-methyl-6-oxo-1,6-dihydropyridin-3-yl)-2,3-dihydropyrido[2,3-d]pyrimidin-4(1H)-one] |
| ≤ 100 | Cc1cc(F)ccc1N1CN(c2ccc(=O)[nH]c2C)C(=O)c2ccc(OCC(F)(F)F)cc21 [Example 230, 1-(4-fluoro-2-methylphenyl)-3-(2-methyl-6-oxo-1,6-dihydropyridin-3-yl)-7-(2,2,2-trifluoroethoxy)-2,3-dihydroquinazolin-4(1H)-one] |
| 794 to 7940 | Cc1cc(F)ccc1N1CN(c2c(Cl)cc(=O)[nH]c2C)C(=O)c2cc(Cl)ccc21 [Example 232, 6-chloro-3-(4-chloro-2-methyl-6-oxo-1,6-dihydropyridin-3-yl)-1-(4-fluoro-2-methylphenyl)-2,3-dihydroquinazolin-4(1H)-one] |
| ≤ 100 | Cc1cc(F)ccc1N1CN(c2ccc(=O)[nH]c2C)C(=O)c2c1ccc(Cl)c2C [Example 234, 6-chloro-1-(4-fluoro-2-methylphenyl)-5-methyl-3-(2-methyl-6-oxo-1,6-dihydropyridin-3-yl)-2,3-dihydroquinazolin-4(1H)-one] |
| 794 to 7940 | Cc1[nH]c(=O)ccc1N1CN(c2cc(F)cc(F)c2C)c2ccc(C(F)(F)F)cc2C1=O [Example 235, 1-(3,5-difluoro-2-methylphenyl)-3-(2-methyl-6-oxo-1,6-dihydropyridin-3-yl)-6-(trifluoromethyl)-2,3-dihydroquinazolin-4(1H)-one] |
| 794 to 7940 | Cc1cc(F)ccc1N1CN(c2cc[nH]c(=O)c2C)C(=O)c2cc(C(F)(F)F)ccc21 [Example 238, 1-(4-fluoro-2-methylphenyl)-3-(3-methyl-2-oxo-1,2-dihydropyridin-4-yl)-6-(trifluoromethyl)-2,3-dihydroquinazolin-4(1H)-one] |
| 126 to 631 | Cc1cc(F)ccc1N1CN(c2ccc(=O)[nH]c2C)C(=O)c2ccc(OC(F)F)nc21 [Example 241, 7-(difluoromethoxy)-1-(4-fluoro-2-methylphenyl)-3-(2-methyl-6-oxo-1,6-dihydropyridin-3-yl)-2,3-dihydropyrido[2,3-d]pyrimidin-4(1H)-one] |
| ≤ 100 | Cc1cc(F)ccc1N1CN(c2ccc(=O)[nH]c2C)C(=O)c2cc(F)c(C#N)cc21 [Example 242, 6-fluoro-1-(4-fluoro-2-methylphenyl)-3-(2-methyl-6-oxo-1,6-dihydropyridin-3-yl)-4-oxo-1,2,3,4-tetrahydroquin-azoline-7-carbonitrile] |
